{"source": "paper PMC9127750", "about": "“Structure-based design of CDC42 effector interaction inhibitors for the treatment of cancer” (Cell reports, 2022)", "test_system": "WM3248 melanoma cells, 486 antibodies", "experiment": "Reverse phase protein arrays (RPPA)", "format": "cell-based, Human", "conditions": "10 uM", "source_text": "Pellets were snap frozen in liquid nitrogen and shipped to MD Anderson Cancer Center core RPPA facility for RPPA analysis (Table S5). Three biological replicates for each sample were generated.\nNomenclatures on the RPPA heatmaps: name_of_antibody.species_of_antibody.status_of_antibody. V - antibody validated; C - validation of antibody in progress; Q - antibody nonspecific; E – under evaluation; antibodies raised in M - mouse, G - goat, R - rabbit, or T - rat.", "note": "“And” between values parts separate entries of the source, which are not always exact repeats. Identical values can stand only once."}
{"compound": "CN(C)c1cccc(Nc2cc(-c3ccccc3)nc(C3CCNCC3)n2)c1", "note": "[ARN22089, N1,N1-dimethyl-N3-(6-phenyl-2-(piperidin-4-yl)pyrimidin-4-yl)benzene-1,3-diamine]", "values": [{"measurement": "RPPA level MMP14.R.V", "setting": "single replicates", "result": "0.939 and 1.138"}, {"measurement": "RPPA level MR1.M.C", "setting": "single replicates", "result": "1.059 and 1.005 and 1.063"}, {"measurement": "RPPA level MRAP.R.C", "setting": "single replicates", "result": "1.023 and 1.051"}, {"measurement": "RPPA level MSH2.R.C", "setting": "single replicates", "result": "0.977 and 1.024"}, {"measurement": "RPPA level MSH6.R.C", "setting": "single replicates", "result": "0.940 and 0.976"}, {"measurement": "RPPA level MSI2.R.C", "setting": "single replicates", "result": "1.020 and 0.933"}, {"measurement": "RPPA level MTCO1.M.V", "setting": "single replicates", "result": "1.128 and 0.684"}, {"measurement": "RPPA level MTSS1.M.C", "setting": "single replicates", "result": "1.023 and 1.031"}, {"measurement": "RPPA level Mcl.1.R.V", "setting": "single replicates", "result": "0.823 and 0.973 and 0.929"}, {"measurement": "RPPA level MelanA.R.C", "setting": "single replicates", "result": "0.752 and 0.988 and 1.034"}, {"measurement": "RPPA level Melanoma.gp100.R.C", "setting": "single replicates", "result": "0.837 and 0.959 and 1.052"}, {"measurement": "RPPA level Merlin.R.C", "setting": "single replicates", "result": "1.020 and 0.924"}, {"measurement": "RPPA level Midkine.R.V", "setting": "single replicates", "result": "1.032 and 0.966 and 1.004"}, {"measurement": "RPPA level Mitofusin.1.R.V", "setting": "single replicates", "result": "0.925 and 1.003 and 1.050"}, {"measurement": "RPPA level Mitofusin.2.R.V", "setting": "single replicates", "result": "0.797 and 0.934 and 1.103"}, {"measurement": "RPPA level Mnk1.R.V", "setting": "single replicates", "result": "0.917 and 0.929 and 1.022"}, {"measurement": "RPPA level mTOR.R.V", "setting": "single replicates", "result": "1.016 and 0.918 and 0.854"}, {"measurement": "RPPA level mTOR_pS2448.R.C", "setting": "single replicates", "result": "1.016 and 0.946 and 0.924"}, {"measurement": "RPPA p21.R.C", "setting": "single replicates", "result": "1.203 and 0.773 and 1.055"}, {"measurement": "RPPA p27.Kip1.R.C", "setting": "single replicates", "result": "1.051 and 0.999"}, {"measurement": "RPPA p27_pT157.R.C", "setting": "single replicates", "result": "1.124 and 1.006"}, {"measurement": "RPPA p27_pT198.R.V", "setting": "single replicates", "result": "0.989 and 1.466 and 1.049"}, {"measurement": "RPPA p38.MAPK.R.V", "setting": "single replicates", "result": "0.899 and 0.964 and 1.062"}, {"measurement": "RPPA p38.MAPK._pT180_Y182.R.V", "setting": "single replicates", "result": "0.872 and 0.913 and 0.950"}, {"measurement": "RPPA p38.a.M.V", "setting": "single replicates", "result": "0.966 and 1.049"}, {"measurement": "RPPA p44.42.MAPK.R.V", "setting": "single replicates", "result": "0.852 and 0.899"}, {"measurement": "RPPA p53.R.C", "setting": "single replicates", "result": "0.871 and 0.886 and 0.966"}, {"measurement": "RPPA p70.S6K1.R.V", "setting": "single replicates", "result": "1.046 and 0.827 and 0.882"}, {"measurement": "RPPA p70.S6K_pT389.R.V", "setting": "single replicates", "result": "1.331 and 0.838 and 0.820"}, {"measurement": "RPPA p90RSK_pT573.R.C", "setting": "single replicates", "result": "1.224 and 0.922 and 1.014"}, {"measurement": "RPPA DNMT1.R.V", "setting": "single samples", "result": "1.052 and 0.962 and 1.050"}, {"measurement": "RPPA DRP1.R.V", "setting": "single samples", "result": "1.012 and 0.957 and 0.978"}, {"measurement": "RPPA DUSP4.R.V", "setting": "single samples", "result": "0.821 and 0.862 and 1.012"}, {"measurement": "RPPA DUSP6.R.C", "setting": "single samples", "result": "1.063 and 0.981 and 0.768"}, {"measurement": "RPPA DYRK1B.R.C", "setting": "single samples", "result": 1.057}, {"measurement": "RPPA Dvl3.R.V", "setting": "single samples", "result": "0.885 and 1.058 and 1.012"}, {"measurement": "RPPA E2F1.R.V", "setting": "single samples", "result": "1.030 and 1.011"}, {"measurement": "RPPA E.Cadherin.R.V", "setting": "single samples", "result": "0.941 and 1.144 and 1.080"}, {"measurement": "RPPA EGFR.R.V", "setting": "single samples", "result": "0.824 and 0.981 and 0.985"}, {"measurement": "RPPA EGFR_pY1068.R.C", "setting": "single samples", "result": "0.993 and 0.982"}, {"measurement": "RPPA EGFR_pY1173.R.V", "setting": "single samples", "result": "0.968 and 1.017 and 0.987"}, {"measurement": "RPPA EMA.M.C", "setting": "single samples", "result": "1.080 and 1.274"}, {"measurement": "RPPA ENY2.M.C", "setting": "single samples", "result": "0.960 and 1.056"}, {"measurement": "RPPA ER.a.R.V", "setting": "single samples", "result": "0.808 and 0.999 and 1.013"}, {"measurement": "RPPA ER.a_pS118.R.V", "setting": "single samples", "result": "1.079 and 0.918 and 0.929"}, {"measurement": "RPPA ERCC1.R.C", "setting": "single samples", "result": "1.102 and 1.123 and 0.975"}, {"measurement": "RPPA ERCC5.R.C", "setting": "single samples", "result": "0.931 and 0.897 and 0.810"}, {"measurement": "RPPA ERRalpha.R.V", "setting": "single samples", "result": "1.149 and 0.962"}, {"measurement": "RPPA EVI1.R.V", "setting": "single samples", "result": "1.129 and 1.023"}, {"measurement": "RPPA Elk1_pS383.R.C", "setting": "single samples", "result": "0.944 and 1.020 and 1.011"}, {"measurement": "RPPA Enolase.1.R.V", "setting": "single samples", "result": "0.956 and 0.946"}, {"measurement": "RPPA Enolase.2.R.V", "setting": "single samples", "result": "1.058 and 1.146 and 1.060"}, {"measurement": "RPPA EphA2.R.V", "setting": "single samples", "result": "0.798 and 1.104 and 1.103"}, {"measurement": "RPPA EphA2_pY588.R.C", "setting": "single samples", "result": "0.976 and 0.887"}, {"measurement": "RPPA Erk5.R.V", "setting": "single samples", "result": "0.766 and 0.899 and 1.062"}, {"measurement": "RPPA Ets.1.R.V", "setting": "single samples", "result": "1.143 and 1.054 and 1.017"}, {"measurement": "RPPA FABP5.R.C", "setting": "single samples", "result": "0.909 and 1.032 and 1.076"}, {"measurement": "RPPA FAK.R.C", "setting": "single samples", "result": "0.856 and 0.998"}, {"measurement": "RPPA FAK_pY397.R.V", "setting": "single samples", "result": "1.077 and 0.996"}, {"measurement": "RPPA FANCD2.R.V", "setting": "single samples", "result": "1.119 and 0.953 and 0.957"}, {"measurement": "RPPA FASN.R.V", "setting": "single samples", "result": "1.052 and 0.855 and 0.656"}, {"measurement": "RPPA FGF.basic.R.C", "setting": "single samples", "result": "0.867 and 1.005 and 0.952"}, {"measurement": "RPPA FN14.R.C", "setting": "single samples", "result": "0.860 and 1.189 and 1.048"}, {"measurement": "RPPA FOXM1.R.V", "setting": "single samples", "result": "1.131 and 0.950 and 0.985"}, {"measurement": "RPPA FOXO3.R.V", "setting": "single samples", "result": "0.873 and 1.121 and 1.097"}, {"measurement": "RPPA FRS2.alpha_pY196.R.V", "setting": "single samples", "result": "1.003 and 1.811"}, {"measurement": "RPPA FTO.R.V", "setting": "single samples", "result": "1.061 and 0.989 and 0.960"}, {"measurement": "RPPA Fibronectin.R.V", "setting": "single samples", "result": "0.546 and 0.983 and 0.999"}, {"measurement": "RPPA FoxO3a_pS318_S321.R.C", "setting": "single samples", "result": "1.060 and 0.984"}, {"measurement": "RPPA G6PD.R.V", "setting": "single samples", "result": "1.051 and 1.085 and 1.058"}, {"measurement": "RPPA GATA3.M.V", "setting": "single samples", "result": "1.245 and 0.906 and 0.898"}, {"measurement": "RPPA GATA6.R.V", "setting": "single samples", "result": "1.116 and 0.978"}, {"measurement": "RPPA GCLC.R.C", "setting": "single samples", "result": "0.924 and 1.030"}, {"measurement": "RPPA GCLM.R.V", "setting": "single samples", "result": "1.052 and 1.025 and 1.000"}, {"measurement": "RPPA GCN5L2.R.V", "setting": "single samples", "result": "0.890 and 0.985"}, {"measurement": "RPPA GGPS1.M.V", "setting": "single samples", "result": "0.998 and 0.974 and 1.046"}, {"measurement": "RPPA GRB2.R.V", "setting": "single samples", "result": "0.833 and 0.898 and 0.998"}, {"measurement": "RPPA GRB7.R.V", "setting": "single samples", "result": "0.772 and 1.100"}, {"measurement": "RPPA GSK.3B.R.C", "setting": "single samples", "result": "0.886 and 0.913 and 0.953"}, {"measurement": "RPPA GSK.3a.b.M.V", "setting": "single samples", "result": "1.163 and 1.006 and 1.033"}, {"measurement": "RPPA GSK.3a.b_pS21_S9.R.V", "setting": "single samples", "result": "1.290 and 0.899 and 0.932"}]}
